In US20100248390A1, “COMPOSITIONS AND METHODS FOR IDENTIFYING LIGANDS OF ODORANT RECEPTORS” (DUKE UNIVERSITY, priority 2009, published 2010):
Where two headings read alike, the source gives them in different places.

Columns and labels:
[1] = target: T1, human odorant receptors (ORs) (Homo sapiens, UniProt Q9P1Q5); assay: CRE-luciferase assay of odorant receptor activation (Dual-Glo, Hana3A cells, RTP1S), dose-response EC50; format: cell-based
T1 construct: OR open reading frames were amplified from genomic DNA; expressed in transfected cells; host or cells: Hana3A cells, co-transfected with RTP1S, CRE-luciferase and pRL-SV40
T1 sequence (Q9P1Q5 1-309): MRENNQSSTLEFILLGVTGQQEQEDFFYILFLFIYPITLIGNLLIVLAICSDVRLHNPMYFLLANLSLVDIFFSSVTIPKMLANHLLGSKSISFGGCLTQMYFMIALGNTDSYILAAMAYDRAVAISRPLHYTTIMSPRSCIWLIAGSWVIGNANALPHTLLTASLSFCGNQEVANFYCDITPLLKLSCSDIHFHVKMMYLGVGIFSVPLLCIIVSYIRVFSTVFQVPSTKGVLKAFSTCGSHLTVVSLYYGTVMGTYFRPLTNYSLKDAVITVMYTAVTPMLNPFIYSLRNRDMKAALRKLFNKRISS
Outline: (§1)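 Hana3A cells were co-transfected with Rho-tagged OR, RTP1S, CRE-luciferase and pRL-SV40, then exposed to odorant in CD293 medium for 4 hrs at 37° C. Firefly luminescence was divided by Renilla and normalized as (LN−Lmin)/(Lmax−Lmin) per plate set. Each dose was tested at least three times, and EC50 came from sigmoidal fits.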

[2] = target: T2, human odorant receptors (ORs) (Homo sapiens, UniProt Q9Y3N9); assay: as above; format: cell-based
T2 construct: OR open reading frames were amplified from genomic DNA; expressed in transfected cells; host or cells: Hana3A cells, co-transfected with RTP1S, CRE-luciferase and pRL-SV40
T2 sequence (Q9Y3N9 1-320): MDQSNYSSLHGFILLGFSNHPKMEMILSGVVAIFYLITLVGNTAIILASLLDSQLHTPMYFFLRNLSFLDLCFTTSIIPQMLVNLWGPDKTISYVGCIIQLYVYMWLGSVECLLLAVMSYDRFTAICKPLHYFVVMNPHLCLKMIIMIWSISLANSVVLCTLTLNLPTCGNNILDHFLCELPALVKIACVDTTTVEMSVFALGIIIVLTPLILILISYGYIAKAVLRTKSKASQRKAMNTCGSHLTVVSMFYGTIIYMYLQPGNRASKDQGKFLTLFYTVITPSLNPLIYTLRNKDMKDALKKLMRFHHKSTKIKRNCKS
Outline: as §1

[3] = receptor OR1A1, read-out: log EC50 (Table 4 value), OR1A1 (converted)
[4] = receptor OR2W1, read-out: log EC50 (Table 4 value), OR2W1 (converted)
[5] = receptor OR2W1, read-out: log EC50 of odorant at OR2W1 (0 = no response) (converted)
[6] = receptor OR1A1, 0 = no response
[7] = receptor OR2W1, 0 = no response
[8] = receptor OR1A1, 0 = no response, read-out: log EC50, OR1A1 (converted)
[9] = receptor OR2W1, 0 = no response, read-out: log EC50, OR2W1 (converted)
[10] = receptor OR1A1, read-out: log EC50 of odorant at OR1A1 (0 = no response) (converted)

SMILES: O=C1CCOc2ccccc21 [4-Chromanone]
- EC50 [1, 3]: 462 µM
- EC50 [2, 4]: 91 µM

SMILES: CCCCCCCCC(=O)O [Nonanoic acid]
- EC50 [2, 5]: 189 µM

SMILES: C=C(C)C1CC=C(C)C(=O)C1 (single isomer, unassigned; (-)) [(−)-Carvone]
- log EC50, OR1A1 [1, 6]: −5.765
- log EC50, OR2W1 [2, 7]: −4.657

SMILES: CCCCCCCO [1-Heptanol]
- EC50 [1, 8]: 971 µM
- EC50 [2, 9]: 14.8 µM

SMILES: CCCCCCCCCS [Nonanethiol]
- EC50 [1, 10]: 571 µM
- EC50 [2, 5]: 86.1 µM

SMILES: CC(C)=CCC/C(C)=C/CO [Getaniol]
- EC50 [1, 3]: 341 µM
- EC50 [2, 4]: 18.4 µM

SMILES: CCCCCCCCCCO [1-Decanol]
- EC50 [1]: 828 µM
- EC50 [2]: 43.2 µM

SMILES: CCCCCCCCS [Octanethiol]
- EC50 [1, 10]: 594 µM
- EC50 [2, 5]: 92.7 µM

SMILES: CCCCCCCC(=O)O [Octanoic Acid]
- EC50 [2, 5]: 14.2 µM

SMILES: CCCCCC1=C(C)CCC1=O [Dihydroiasmone]
- log EC50 (Table 4 value), OR1A1 ([1]; receptor OR1A1): −7.242
- log EC50 (Table 4 value), OR2W1 ([2]; receptor OR2W1): −4.246

SMILES: CC(=O)Oc1ccccc1 [Phenyl acetate]
- EC50 [2, 5]: 84.9 µM

SMILES: CC(=O)OCc1ccccc1 [Benzyl acetate]
- EC50 [1, 3]: 406 µM
- EC50 [2, 4]: 16.4 µM

SMILES: O=c1ccc2ccccc2o1 [Coumarin]
- EC50 [2, 4]: 86.1 µM

SMILES: C=C(C)[C@@H]1CC[C@@H](C)C(=O)C1 [(+)-Dihydrocarvone]
- log EC50, OR1A1 [1, 6]: −4.992
- log EC50, OR2W1 [2, 7]: −4.755

SMILES: CC(=O)c1ccccc1 [Acetophenone]
- EC50 [2, 4]: 42.5 µM

SMILES: C=CCOC(=O)Cc1ccccc1 [Allyl phenylacetate]
- EC50 [1]: 7.6 µM
- EC50 [2]: 15.4 µM

SMILES: C=C(C)[C@H]1CC=C(C)C(=O)C1 [(+)-Carvone]
- log EC50, OR1A1 [1, 6]: −5.035
- log EC50, OR2W1 [2, 7]: −4.646

SMILES: CC(C)=CCCC(C)CCO (single isomer, unassigned; (-)) [(−)-b-C ? inedol]
- EC50 [1, 8]: 91.4 µM
- EC50 [2, 9]: 7.8 µM
